ChEMBL document CHEMBL1156029, “The discovery of thienopyridine analogues as potent IkappaB kinase beta inhibitors. Part II” (Bioorg Med Chem Lett, 2009)
pIC50: −log10 of the molar value. The source made the active and inactive calls. The rule behind the calls is not given here.

What was measured:
Mus musculus [1] = experiment: Inhibition of LPS-induced TNFalpha production in mouse at 10 mg/kg, po administered 60 mins before LPS challenge; format: functional
[2] = Inhibition of AMPK at 10 uM
[3] = target: T1, Mitogen-activated protein kinase 12 (Homo sapiens) (UniProt P53778); experiment: Inhibition of p38-gamma at 10 uM
T1 sequence (whole entry): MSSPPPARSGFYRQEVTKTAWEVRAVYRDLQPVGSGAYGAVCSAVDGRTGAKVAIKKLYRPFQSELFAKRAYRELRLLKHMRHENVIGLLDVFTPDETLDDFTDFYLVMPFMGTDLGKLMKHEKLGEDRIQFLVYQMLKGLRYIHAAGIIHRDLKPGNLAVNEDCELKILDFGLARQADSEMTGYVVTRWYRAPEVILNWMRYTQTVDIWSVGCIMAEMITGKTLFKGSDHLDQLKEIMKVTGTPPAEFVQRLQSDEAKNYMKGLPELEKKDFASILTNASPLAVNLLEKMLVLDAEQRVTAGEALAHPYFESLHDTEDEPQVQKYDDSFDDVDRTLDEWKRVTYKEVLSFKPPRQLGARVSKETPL

[4] = target: T2, Mitogen-activated protein kinase 13 (Homo sapiens) (UniProt O15264); experiment: Inhibition of p38delta at 10 uM
T2 sequence (whole entry): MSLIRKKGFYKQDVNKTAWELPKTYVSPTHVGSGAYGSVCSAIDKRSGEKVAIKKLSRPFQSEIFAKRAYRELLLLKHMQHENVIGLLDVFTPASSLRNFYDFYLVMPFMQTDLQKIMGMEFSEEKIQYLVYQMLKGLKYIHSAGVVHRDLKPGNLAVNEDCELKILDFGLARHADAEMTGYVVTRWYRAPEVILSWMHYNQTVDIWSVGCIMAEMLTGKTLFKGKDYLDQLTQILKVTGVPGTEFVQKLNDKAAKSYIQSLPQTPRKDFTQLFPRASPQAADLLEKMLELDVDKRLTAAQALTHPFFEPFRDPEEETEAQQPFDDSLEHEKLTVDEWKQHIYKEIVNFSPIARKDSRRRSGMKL

[5] = target: Tyrosine-protein kinase Lck (Homo sapiens) (UniProt P06239); experiment: Inhibition of Lck at 10 uM
[6] = target: Glycogen synthase kinase-3 beta (Homo sapiens) (UniProt P49841); experiment: Inhibition of GSK3-beta at 10 uM
Mus musculus [7] = experiment: Inhibition of LPS-induced TNFalpha production in mouse at 100 mg/kg, po administered 60 mins before LPS challenge; format: functional
[8] = target: Tyrosine-protein kinase CSK (Homo sapiens) (UniProt P41240); experiment: Inhibition of CSK at 10 uM
[9] = Inhibition of PHOS Kinase at 10 uM
[10] = Inhibition of CK2 at 10 uM
[11] = Plasma concentration in mouse at 100 mg/kg, po after 120 mins; format: ADME, organism-based; set-up: dose 100 mg/kg, route oral
[12] = target: T3, Inhibitor of nuclear factor kappa-B kinase subunit beta (Homo sapiens, UniProt O14920); experiment: Inhibition of Flag epitope-tagged IKK-beta preincubated for 5 mins by scintillation proximity assay
T3 sequence (O14920 whole entry): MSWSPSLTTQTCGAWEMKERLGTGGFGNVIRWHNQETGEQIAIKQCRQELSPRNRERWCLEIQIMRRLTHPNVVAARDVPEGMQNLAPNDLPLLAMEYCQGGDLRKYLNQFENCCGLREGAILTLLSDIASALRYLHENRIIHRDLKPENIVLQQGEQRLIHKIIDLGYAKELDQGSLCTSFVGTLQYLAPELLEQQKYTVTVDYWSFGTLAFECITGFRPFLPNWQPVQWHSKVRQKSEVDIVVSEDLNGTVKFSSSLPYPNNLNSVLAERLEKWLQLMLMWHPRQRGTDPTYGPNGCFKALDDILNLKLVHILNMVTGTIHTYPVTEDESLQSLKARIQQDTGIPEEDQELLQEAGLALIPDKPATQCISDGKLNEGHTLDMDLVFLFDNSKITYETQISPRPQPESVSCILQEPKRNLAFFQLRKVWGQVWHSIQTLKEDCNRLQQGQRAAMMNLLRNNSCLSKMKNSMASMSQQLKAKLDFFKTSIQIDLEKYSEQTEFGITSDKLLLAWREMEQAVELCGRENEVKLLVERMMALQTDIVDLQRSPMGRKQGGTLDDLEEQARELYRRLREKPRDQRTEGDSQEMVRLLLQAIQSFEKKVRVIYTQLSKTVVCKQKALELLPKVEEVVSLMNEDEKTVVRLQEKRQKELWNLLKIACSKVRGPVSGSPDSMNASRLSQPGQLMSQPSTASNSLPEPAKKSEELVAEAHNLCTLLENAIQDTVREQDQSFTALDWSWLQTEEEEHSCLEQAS

[13] = target: T4, Serine/threonine-protein kinase Sgk1 (Homo sapiens) (UniProt O00141); experiment: Inhibition of SGK at 10 uM
T4 sequence (whole entry): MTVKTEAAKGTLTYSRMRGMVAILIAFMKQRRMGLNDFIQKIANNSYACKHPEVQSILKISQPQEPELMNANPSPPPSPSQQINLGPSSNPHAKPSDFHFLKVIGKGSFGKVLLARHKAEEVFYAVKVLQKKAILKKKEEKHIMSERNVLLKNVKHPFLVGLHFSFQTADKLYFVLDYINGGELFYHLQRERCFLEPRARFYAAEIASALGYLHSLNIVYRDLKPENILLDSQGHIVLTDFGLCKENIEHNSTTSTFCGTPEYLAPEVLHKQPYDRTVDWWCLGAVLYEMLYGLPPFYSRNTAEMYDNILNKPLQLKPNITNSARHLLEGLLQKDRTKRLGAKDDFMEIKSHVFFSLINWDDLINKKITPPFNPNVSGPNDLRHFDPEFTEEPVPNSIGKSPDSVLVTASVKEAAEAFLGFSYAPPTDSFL

[14] = target: Ribosomal protein S6 kinase alpha-5 (Homo sapiens) (UniProt O75582); experiment: Inhibition of MSK1 at 10 uM
[15] = target: Ribosomal protein S6 kinase beta-1 (Homo sapiens) (UniProt P23443); experiment: Inhibition of S6K1 at 10 uM
[16] = target: Casein kinase I isoform alpha (Homo sapiens) (UniProt P48729); experiment: Inhibition of CK1 at 10 uM
[17] = Inhibition of PKA at 10 uM
[18] = Inhibition of PH domain deficient PKBdelta at 10 uM
Blood = experiment: Inhibition of LPS-induced TNFalpha production in human whole blood; format: functional, tissue-based

Sequence of Casein kinase I isoform alpha (Homo sapiens) (P48729 2-337 limits assumed): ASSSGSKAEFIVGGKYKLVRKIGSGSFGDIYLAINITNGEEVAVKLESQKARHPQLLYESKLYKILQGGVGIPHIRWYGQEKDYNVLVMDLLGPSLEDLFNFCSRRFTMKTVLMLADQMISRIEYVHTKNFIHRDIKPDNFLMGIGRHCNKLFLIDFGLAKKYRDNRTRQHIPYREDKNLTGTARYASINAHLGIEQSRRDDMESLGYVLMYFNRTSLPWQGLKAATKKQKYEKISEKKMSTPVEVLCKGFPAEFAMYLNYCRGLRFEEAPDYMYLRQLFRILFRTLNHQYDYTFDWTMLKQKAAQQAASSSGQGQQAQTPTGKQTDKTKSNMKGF
Sequence of Tyrosine-protein kinase CSK (Homo sapiens) (P41240 2-450 limits assumed): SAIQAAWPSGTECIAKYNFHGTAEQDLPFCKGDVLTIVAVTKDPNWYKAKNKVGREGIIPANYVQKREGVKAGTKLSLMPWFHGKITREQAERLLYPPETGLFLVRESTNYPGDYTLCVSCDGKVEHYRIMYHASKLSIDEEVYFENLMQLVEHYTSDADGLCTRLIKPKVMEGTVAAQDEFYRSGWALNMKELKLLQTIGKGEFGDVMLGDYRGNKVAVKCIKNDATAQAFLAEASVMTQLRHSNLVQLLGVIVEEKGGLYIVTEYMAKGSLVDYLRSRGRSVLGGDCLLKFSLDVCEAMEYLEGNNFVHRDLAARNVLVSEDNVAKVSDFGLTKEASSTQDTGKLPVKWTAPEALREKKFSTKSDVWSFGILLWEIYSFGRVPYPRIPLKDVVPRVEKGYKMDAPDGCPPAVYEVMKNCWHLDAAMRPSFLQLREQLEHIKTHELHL
Sequence of Ribosomal protein S6 kinase beta-1 (Homo sapiens) (P23443 whole entry, looked up, canonical isoform): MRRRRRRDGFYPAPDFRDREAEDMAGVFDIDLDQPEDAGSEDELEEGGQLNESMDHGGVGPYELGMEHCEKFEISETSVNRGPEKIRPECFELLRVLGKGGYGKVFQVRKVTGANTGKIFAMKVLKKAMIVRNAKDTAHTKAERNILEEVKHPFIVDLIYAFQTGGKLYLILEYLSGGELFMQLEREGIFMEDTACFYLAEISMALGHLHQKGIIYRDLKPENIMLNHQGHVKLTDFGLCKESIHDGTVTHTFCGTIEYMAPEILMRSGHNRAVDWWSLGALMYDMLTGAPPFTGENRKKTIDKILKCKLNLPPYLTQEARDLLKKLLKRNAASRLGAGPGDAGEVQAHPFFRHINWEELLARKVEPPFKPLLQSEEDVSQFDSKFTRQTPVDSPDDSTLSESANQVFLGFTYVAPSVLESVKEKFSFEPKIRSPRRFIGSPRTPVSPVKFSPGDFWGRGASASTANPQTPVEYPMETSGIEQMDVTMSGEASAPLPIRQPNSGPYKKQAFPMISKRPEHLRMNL
Sequence of Glycogen synthase kinase-3 beta (Homo sapiens) (P49841 whole entry, looked up): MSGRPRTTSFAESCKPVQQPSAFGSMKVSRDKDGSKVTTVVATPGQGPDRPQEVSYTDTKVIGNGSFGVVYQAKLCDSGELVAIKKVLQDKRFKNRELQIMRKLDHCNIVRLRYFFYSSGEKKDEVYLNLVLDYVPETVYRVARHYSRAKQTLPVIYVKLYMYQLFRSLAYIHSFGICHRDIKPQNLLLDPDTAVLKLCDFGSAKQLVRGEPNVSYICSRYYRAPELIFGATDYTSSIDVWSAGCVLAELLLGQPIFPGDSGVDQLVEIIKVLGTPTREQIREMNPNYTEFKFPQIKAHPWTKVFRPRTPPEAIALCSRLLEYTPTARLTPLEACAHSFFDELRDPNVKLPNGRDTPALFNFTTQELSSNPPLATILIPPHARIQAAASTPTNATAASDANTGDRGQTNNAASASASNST
Sequence of Ribosomal protein S6 kinase alpha-5 (Homo sapiens) (O75582 whole entry, looked up): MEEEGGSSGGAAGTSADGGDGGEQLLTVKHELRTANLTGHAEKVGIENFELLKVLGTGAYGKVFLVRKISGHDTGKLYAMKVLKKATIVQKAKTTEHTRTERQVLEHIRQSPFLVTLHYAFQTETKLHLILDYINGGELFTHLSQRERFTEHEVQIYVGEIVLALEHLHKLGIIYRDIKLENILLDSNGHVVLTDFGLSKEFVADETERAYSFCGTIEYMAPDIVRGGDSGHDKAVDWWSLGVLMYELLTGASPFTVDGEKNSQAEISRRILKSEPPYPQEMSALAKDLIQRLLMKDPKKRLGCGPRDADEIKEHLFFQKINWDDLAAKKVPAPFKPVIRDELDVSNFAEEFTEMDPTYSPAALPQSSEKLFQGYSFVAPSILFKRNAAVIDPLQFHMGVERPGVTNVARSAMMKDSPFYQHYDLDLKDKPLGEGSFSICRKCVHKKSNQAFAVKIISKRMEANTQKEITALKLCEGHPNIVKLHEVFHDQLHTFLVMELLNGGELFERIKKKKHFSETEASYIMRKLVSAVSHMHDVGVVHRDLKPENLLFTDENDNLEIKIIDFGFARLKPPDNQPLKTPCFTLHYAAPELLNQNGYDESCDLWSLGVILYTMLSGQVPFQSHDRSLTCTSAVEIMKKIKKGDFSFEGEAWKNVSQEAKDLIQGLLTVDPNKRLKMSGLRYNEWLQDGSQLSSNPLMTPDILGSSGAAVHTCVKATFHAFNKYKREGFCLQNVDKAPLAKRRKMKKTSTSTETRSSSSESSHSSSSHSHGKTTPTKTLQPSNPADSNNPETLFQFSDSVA
Sequence of Tyrosine-protein kinase Lck (Homo sapiens) (P06239 2-509 limits assumed): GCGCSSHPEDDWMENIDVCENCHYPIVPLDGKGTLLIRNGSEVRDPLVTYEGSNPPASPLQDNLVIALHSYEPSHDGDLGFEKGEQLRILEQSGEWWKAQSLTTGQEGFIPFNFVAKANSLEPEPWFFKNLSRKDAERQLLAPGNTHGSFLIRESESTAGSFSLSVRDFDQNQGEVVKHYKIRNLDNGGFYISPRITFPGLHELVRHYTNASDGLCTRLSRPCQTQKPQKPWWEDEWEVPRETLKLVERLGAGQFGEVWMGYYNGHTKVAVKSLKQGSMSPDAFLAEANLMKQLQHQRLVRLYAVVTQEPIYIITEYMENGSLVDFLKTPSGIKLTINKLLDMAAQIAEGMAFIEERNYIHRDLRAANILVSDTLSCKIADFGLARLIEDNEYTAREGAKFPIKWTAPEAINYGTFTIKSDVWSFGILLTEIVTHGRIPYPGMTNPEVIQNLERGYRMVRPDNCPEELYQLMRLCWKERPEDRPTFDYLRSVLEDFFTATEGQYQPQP

Row | SMILES | inhibition in vivo at 10 mg/kg (Mus musculus [1]) | Activity [2] | Activity [3] | Activity [4] | Activity [5] | Activity [6] | inhibition in vivo at 100 mg/kg (Mus musculus [7]) | Activity [8] | Activity [9] | Activity [10] | concentration at 2 h [11] | pIC50 [12] | Activity [13] | Activity [14] | Activity [15] | Activity [16] | Activity [17] | Activity [18] | pIC50 (Blood)
1 | CCCc1cc(N2CCC(N)CC2)nc2sc(C(N)=O)c(N)c12 | 17% | inactive | inactive | inactive | inactive | inactive | 81% | inactive | inactive | inactive | 2.8 µM | 7.39 | inactive | inactive | inactive | inactive | inactive | inactive | 5.80
2 | CCCc1cc(N2CCCC(O)C2)nc2sc(C(N)=O)c(N)c12 (stereo unspecified) | 14% | inactive | inactive | inactive | inactive | inactive | 93% | inactive | inactive | inactive | 22.5 µM | 6.24 | inactive | inactive | inactive | inactive | inactive | inactive | 4.89
3 | CCCc1cc(N2CCC(O)CC2)nc2sc(C(N)=O)c(N)c12 | 42% | inactive | inactive | inactive | inactive | inactive | 98% | inactive | inactive | inactive | 42.3 µM | 6.55 | inactive | inactive | inactive | inactive | inactive | inactive | 5.01
4 | CCCc1cc(N2CCNCC2)nc2sc(C(N)=O)c(N)c12 | 12% | inactive | inactive | inactive | inactive | inactive | 74% | inactive | inactive | inactive | 3.5 µM | 6.92 | inactive | inactive | inactive | inactive | inactive | inactive | 5.49
